Test [1] deals with T1, human Nav1.5 (Homo sapiens, UniProt Q14524).
T1 construct: expressed in transfected cells
Description: PatchXpress sodium current measurement, inactivated state block, Nav1.5. Format: cell-based. The settings on record: determined by PatchXpress measurement, HEK 293 cells. The protocol:
(§1) Cell Based Assays for Nav 1.7 and Nav 1.5 Activity
(§2) Compounds were tested on human Nav1.7 and Nav1.5 channels stably expressed in HEK 293 cells.
(§3) Sodium Current Measurements on the PatchXpress 7000:
(§4) To measure inactivated state block of sodium channels, test compounds were characterized in an automated PatchXpress® assay (Molecular Devices) using a double-pulse protocol on human Nav1.7 and Nav1.5 channels stably expressed in HEK 293 cells. Cells were held at a potential 20 mV negative to the potential at which ˜50% of the channels are inactivated. A 8000 ms pre-pulse 7 mV positive to the potential at which ˜50% of the channels are inactivated was given followed by a hyperpolarizing 2 ms pulse to −120 mV and a 20 ms test pulse to −20 mV. The protocol was applied to cells in the absence, presence of compound and after washout. The temperature of PatchXpress® instruments was maintained at 22° C. The following recording solutions were used. Internal solution (mM): 30 CsCl, 5 HEPES, 10 EGTA, 120 CsF, 5 NaF, 2 MgCl2, pH 7.3 with CsOH. External solution (mM): 120 NMDG, 40 NaCl, 1 KCl, 0.5 MgCl2, 5 HEPES, 2.7 CaCl2, pH 7.5 with NMDG-OH. Estimated IC50 values were calculated based on at least two compound concentrations tested. For all electrophysiology experiments, offline analysis was used to correct for current rundown and to determine percent inhibition as a function of drug concentration. IC50 values were determined by fitting to the Hill equation.

Test [2] has as its target T2, human Nav1.7 (Homo sapiens, UniProt Q15858).
T2 construct: expressed in transfected cells
The experiment in a line: PatchXpress sodium current measurement, inactivated state block, Nav1.7. Format: cell-based. Particulars: channels stably expressed in HEK 293 cells, double-pulse protocol, 22° C., read-out: potency for the Nav 1.7 sodium ion channel (1.7=). The protocol: as §1, §2, §3, §4

T2 sequence (Q15858 whole entry): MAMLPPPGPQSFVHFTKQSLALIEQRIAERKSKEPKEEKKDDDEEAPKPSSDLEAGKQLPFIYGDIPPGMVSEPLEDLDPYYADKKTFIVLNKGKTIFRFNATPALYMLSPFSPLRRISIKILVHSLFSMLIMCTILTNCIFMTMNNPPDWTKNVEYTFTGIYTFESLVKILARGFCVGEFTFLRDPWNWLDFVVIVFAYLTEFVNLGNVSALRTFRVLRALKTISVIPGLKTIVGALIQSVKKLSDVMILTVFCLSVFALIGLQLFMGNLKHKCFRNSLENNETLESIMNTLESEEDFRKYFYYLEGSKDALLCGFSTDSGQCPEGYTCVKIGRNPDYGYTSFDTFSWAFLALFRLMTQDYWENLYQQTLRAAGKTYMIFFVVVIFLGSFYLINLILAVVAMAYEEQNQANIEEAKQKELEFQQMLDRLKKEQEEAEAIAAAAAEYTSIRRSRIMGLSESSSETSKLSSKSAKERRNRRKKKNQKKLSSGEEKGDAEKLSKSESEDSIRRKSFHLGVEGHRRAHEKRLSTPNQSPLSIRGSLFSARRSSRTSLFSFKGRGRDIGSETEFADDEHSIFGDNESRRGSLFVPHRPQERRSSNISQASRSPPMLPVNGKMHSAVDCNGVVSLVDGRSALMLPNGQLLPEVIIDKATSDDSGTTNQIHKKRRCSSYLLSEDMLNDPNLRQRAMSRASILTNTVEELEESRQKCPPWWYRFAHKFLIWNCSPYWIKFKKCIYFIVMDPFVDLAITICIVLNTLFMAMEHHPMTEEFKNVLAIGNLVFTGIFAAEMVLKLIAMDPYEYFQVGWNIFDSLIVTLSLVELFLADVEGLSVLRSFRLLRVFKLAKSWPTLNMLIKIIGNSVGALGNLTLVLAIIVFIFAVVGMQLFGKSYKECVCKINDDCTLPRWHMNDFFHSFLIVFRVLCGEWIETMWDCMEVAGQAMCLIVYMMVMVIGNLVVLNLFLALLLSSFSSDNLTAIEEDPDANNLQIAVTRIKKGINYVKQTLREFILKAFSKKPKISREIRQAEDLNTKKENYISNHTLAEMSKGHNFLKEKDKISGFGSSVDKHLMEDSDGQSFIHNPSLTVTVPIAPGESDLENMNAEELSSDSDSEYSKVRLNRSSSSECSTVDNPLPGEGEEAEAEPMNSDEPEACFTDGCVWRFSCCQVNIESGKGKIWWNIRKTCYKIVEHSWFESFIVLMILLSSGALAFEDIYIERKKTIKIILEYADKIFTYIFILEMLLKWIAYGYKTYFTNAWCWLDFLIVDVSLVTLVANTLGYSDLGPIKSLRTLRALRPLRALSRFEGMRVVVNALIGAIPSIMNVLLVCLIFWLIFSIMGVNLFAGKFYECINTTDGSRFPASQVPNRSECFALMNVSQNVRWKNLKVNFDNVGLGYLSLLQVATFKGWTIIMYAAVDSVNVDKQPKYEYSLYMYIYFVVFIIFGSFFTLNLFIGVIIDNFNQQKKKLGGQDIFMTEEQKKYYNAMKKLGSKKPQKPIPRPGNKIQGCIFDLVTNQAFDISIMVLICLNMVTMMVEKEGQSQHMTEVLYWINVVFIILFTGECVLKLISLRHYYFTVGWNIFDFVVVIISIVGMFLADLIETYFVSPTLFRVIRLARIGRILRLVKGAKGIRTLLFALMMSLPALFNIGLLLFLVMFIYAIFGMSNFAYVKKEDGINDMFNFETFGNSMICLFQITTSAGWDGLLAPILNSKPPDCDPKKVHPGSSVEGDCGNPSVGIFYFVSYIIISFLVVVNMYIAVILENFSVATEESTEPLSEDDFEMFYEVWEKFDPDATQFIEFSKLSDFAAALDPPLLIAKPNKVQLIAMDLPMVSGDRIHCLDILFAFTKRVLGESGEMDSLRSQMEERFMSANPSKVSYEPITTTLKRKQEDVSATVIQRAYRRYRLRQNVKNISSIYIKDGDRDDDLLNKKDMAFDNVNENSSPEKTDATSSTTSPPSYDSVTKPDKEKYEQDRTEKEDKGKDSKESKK
T1 sequence (Q14524 whole entry): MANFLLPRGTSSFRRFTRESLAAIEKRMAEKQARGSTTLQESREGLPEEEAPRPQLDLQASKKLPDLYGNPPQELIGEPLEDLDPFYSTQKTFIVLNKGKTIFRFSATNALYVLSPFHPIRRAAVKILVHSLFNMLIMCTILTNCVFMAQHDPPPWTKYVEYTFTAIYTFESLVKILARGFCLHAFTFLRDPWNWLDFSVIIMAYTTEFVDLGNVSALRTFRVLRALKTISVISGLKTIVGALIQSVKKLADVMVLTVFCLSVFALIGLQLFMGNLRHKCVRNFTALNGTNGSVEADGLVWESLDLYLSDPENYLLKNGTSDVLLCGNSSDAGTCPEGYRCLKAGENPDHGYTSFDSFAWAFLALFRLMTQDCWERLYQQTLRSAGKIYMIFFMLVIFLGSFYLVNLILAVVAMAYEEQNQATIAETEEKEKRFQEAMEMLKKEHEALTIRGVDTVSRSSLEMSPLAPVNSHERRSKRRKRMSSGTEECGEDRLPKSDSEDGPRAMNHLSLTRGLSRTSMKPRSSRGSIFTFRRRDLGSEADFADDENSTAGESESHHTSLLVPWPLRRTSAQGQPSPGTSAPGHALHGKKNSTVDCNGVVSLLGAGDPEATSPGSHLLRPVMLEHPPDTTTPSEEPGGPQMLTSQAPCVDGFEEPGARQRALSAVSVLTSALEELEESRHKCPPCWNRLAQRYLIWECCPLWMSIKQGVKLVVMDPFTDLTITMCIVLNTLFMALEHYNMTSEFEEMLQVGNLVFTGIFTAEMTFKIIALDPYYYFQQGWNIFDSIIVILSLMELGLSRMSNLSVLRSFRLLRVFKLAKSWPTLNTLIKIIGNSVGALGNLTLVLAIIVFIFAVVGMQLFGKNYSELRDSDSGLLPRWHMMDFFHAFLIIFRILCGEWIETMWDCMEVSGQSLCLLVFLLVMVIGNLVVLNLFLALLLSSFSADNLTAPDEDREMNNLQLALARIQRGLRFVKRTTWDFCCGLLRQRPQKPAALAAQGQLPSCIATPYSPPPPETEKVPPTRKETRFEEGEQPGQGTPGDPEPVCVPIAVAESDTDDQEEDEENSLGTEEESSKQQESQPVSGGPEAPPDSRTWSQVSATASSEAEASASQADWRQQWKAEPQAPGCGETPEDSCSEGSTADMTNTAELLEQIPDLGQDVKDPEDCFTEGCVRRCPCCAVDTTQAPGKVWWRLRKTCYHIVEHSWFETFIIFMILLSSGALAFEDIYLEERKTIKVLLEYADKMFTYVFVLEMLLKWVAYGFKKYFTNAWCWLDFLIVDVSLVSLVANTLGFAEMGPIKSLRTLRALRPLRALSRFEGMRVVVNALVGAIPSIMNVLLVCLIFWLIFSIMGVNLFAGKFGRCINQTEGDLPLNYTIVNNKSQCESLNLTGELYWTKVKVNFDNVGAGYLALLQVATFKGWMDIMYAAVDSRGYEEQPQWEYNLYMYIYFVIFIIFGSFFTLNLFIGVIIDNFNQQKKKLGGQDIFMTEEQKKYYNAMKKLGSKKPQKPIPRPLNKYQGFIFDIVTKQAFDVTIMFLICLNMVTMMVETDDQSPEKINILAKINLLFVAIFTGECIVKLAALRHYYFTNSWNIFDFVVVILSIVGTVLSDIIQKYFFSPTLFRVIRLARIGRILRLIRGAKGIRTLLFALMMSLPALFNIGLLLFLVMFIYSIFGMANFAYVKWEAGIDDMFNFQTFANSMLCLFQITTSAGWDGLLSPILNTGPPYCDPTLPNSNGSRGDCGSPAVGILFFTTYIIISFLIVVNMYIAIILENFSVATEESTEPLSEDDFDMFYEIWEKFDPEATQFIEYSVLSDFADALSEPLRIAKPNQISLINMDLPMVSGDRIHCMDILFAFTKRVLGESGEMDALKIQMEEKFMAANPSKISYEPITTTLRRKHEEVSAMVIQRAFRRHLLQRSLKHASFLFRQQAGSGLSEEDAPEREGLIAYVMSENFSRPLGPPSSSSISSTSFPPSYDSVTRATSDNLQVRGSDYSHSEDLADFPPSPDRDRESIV

In the case of `C[C@H](c1cccc2c1CNCC2)n1c(=O)oc2cc(S(=O)(=O)Nc3cc(Cl)ccn3)c(F)cc21` [Ex16-8, N-(4-Chloropyridin-2-yl)-5-fluoro-2-oxo-3-[(1R)-1-(1,2,3,4-tetrahydroisoquinolin-8-yl)ethyl]-2,3-dihydro-1,3-benzoxazole-6-sulfonamide], the “ratio of Nav 1.5:Nav 1.7 potency” value in test [1] is 88. Further, in test [2], the IC50 was 134 nM.
In the same order, the values of `Cc1cc2c(cc1S(=O)(=O)Nc1cccc(F)n1)oc(=O)n2[C@H](C)c1cccc2c1CNCC2` [Ex17-4, (R)—N-(6-Fluoropyridin-2-yl)-5-methyl-2-oxo-3-(1-(1,2,3,4-tetrahydroisoquinolin-8-yl)ethyl)-2,3-dihydrobenzo[d]oxazole-6-sulfonamide] are 200 and 34 nM.
In the same order, the values of `Cc1cc2c(cc1S(=O)(=O)Nc1cccc(F)n1)oc(=O)n2[C@H](C)c1ccccc1CN` [Ex17-7, 3-{(1R)-1-[2-(aminomethyl)phenyl]ethyl}-N-(6-fluoropyridin-2-yl)-5-methyl-2-oxo-2,3-dihydro-1,3-benzoxazole-6-sulfonamide] are 147 and 49 nM.
Taken in the same sequence, the figures for `Cc1cc2c(cc1S(=O)(=O)Nc1cccc(F)n1)oc(=O)n2[C@H](C)c1ccccc1C1=CCNCC1` [Ex17-8, N-(6-fluoropyridin-2-yl)-5-methyl-2-oxo-3-{(1R)-1-[2-(1,2,3,6-tetrahydropyridin-4-yl)phenyl]ethyl}-2,3-dihydro-1,3-benzoxazole-6-sulfonamide] were 1452 and 6 nM.
In the case of `Cc1cc2c(cc1S(=O)(=O)Nc1cccc(F)n1)oc(=O)n2[C@H](C)c1ccccc1C1CCNCC1` [Ex18-3, (R)—N-(6-Fluoropyridin-2-yl)-5-methyl-2-oxo-3-(1-(2-(piperidin-4-yl)phenyl)ethyl)-2,3-dihydrobenzo[d]oxazole-6-sulfonamide], the “ratio of Nav 1.5:Nav 1.7 potency” value in test [1] came to 233. Besides, the IC50 in test [2] worked out at 13 nM.
Taken in the same sequence, the figures for `Cc1cc2c(cc1S(=O)(=O)Nc1cccc(F)n1)oc(=O)n2[C@H](C)c1cccc(Br)c1` [Ex18-6, 3-[(1R)-1-(3-bromophenyl)ethyl]-N-(6-fluoropyridin-2-yl)-5-methyl-2-oxo-2,3-dihydro-1,3-benzoxazole-6-sulfonamide] were 30 and 57 nM.
Turning to `Cc1cc2c(cc1S(=O)(=O)Nc1cccc(F)n1)oc(=O)n2[C@H](C)c1cccc(Br)c1C` [Ex18-7, 3-[(1R)-1-(3-bromo-2-methylphenyl)ethyl]-N-(6-fluoropyridin-2-yl)-5-methyl-2-oxo-2,3-dihydro-1,3-benzoxazole-6-sulfonamide], in test [1], the “ratio of Nav 1.5:Nav 1.7 potency” value is listed as 90. In addition, the IC50 in test [2] was found to be 69 nM.
Taken in the same sequence, the figures for `Cc1cc2c(cc1S(=O)(=O)Nc1cccc(F)n1)oc(=O)n2[C@H](C)c1cccc(C)c1Br` [Ex18-8, 3-[(1R)-1-(2-bromo-3-methylphenyl)ethyl]-N-(6-fluoropyridin-2-yl)-5-methyl-2-oxo-2,3-dihydro-1,3-benzoxazole-6-sulfonamide] were 102 and 107 nM.
For `Cc1cccc([C@@H](C)n2c(=O)oc3cc(S(=O)(=O)Nc4cccc(F)n4)c(F)cc32)c1CN` [Ex19-1, 3-{(1R)-1-[2-(aminomethyl)-3-methylphenyl]ethyl}-5-fluoro-N-(6-fluoropyridin-2-yl)-2-oxo-2,3-dihydro-1,3-benzoxazole-6-sulfonamide], the “ratio of Nav 1.5:Nav 1.7 potency” value in test [1] is on record as 603. In addition, the IC50 in test [2] turned out to be 9 nM.
In the same order, the values of `Cc1cc2c(cc1S(=O)(=O)Nc1cccc(F)n1)oc(=O)n2[C@H](C)c1cccc(C)c1CN` [Ex19-2, 3-{(1R)-1-[2-(aminomethyl)-3-methylphenyl]ethyl}-N-(6-fluoropyridin-2-yl)-5-methyl-2-oxo-2,3-dihydro-1,3-benzoxazole-6-sulfonamide] are 133 and 14 nM.

Source of the values: patent publication US9624208B2, “Benzoxazolinone compounds with selective activity in voltage-gated sodium channels” (Merck Sharp & Dohme Corp., priority 2012, dated 2017).
